One data set relates to SARS-CoV-2. The data set can be described thus: SARS-CoV-2 cell infection assay in Vero E6 cells, intracellular ATP levels (CellTiter-Glo) and cytopathic effect. Background: In ATP-based viability assays light output follows the ATP content of the culture.
For data set [1] the following is noted: oral administration of a single dose of 300 mg/kg and 2000 mg/kg, 14 days of observation; cited from earlier work.

This is an account of results in patent EP4162935B1 (UNIVERSIDADE NOVA DE LISBOA, priority 2021, dated 2023).

The structures appear in SMILES notation.

On to `COc1ccc(-c2cc(=O)c3c(O)cc(O)cc3o2)cc1O` [diosmetin, 5,7-Dihydroxy-2-(3-hydroxy-4-methoxyphenyl)-4H-benzopyran-4-one], for which the “duration of antiviral effect” value with SARS-CoV-2 (45 µM) is given as 72 h. The optimal concentration in the data set on SARS-CoV-2 (same as in µM, Vero E6 cells, 30 pfu SARS-CoV-2, 72h) amounted to 13.5 µg/mL. Besides, the “signs of toxicity or mortality” value in data set [1] was “did not demonstrate any signs of toxicity or mortality”.
